Results as given in patent US9889094B2, “Particle size reduction of an antimuscarinic compound” (CHIESI FARMACEUTICI S.p.A., priority 2013, dated 2018).
Like-named read-outs stand apart in the source and are kept apart here.

Columns and labels:
[1] = Crystallinity / polymorphic form by X-ray powder diffraction and DSC; assay type: physicochemical; conditions: for XRD: Example 1 powder, storage 22±2° C., 60% relative humidity
[2] = Drying and re-dispersion after wet bead milling in acetone (comparative example); assay type: physicochemical; conditions: wet bead milled in acetone, 200 rpm, 60 minutes; dried at 25° C. under low vacuum; white to off-white solid cake
Protocol: The vessel was sealed and the suspension homogenized into the planetary mill apparatus disclosed in WO 2007/020407, which is incorporated herein by reference in its entirety, at a disc speed of 200 rpm for 60 minutes at ambient temperature and pressure. After 60 minutes, the resulting drug suspension is separated from the milling media by filtering through a nylon mesh and the resulting drug suspension loaded into a drying tray.

[3] = Scanning Electron Microscopy (SEM) of particles; assay type: physicochemical; conditions: after the homogenization step, Example 1 (2H,3H-decafluoropentane); platelet-like particles
[4] = Crystallinity / polymorphic form by DVS; assay type: physicochemical; conditions: Example 4 final product (dichloromethane) compared to the initial coarse drug
[5] = Specific surface area by BET nitrogen adsorption; assay type: physicochemical; conditions: Example 1 powder; for BET SSA: storage 22±2° C., 60% relative humidity
Protocol: Advantageously, the specific surface area of the obtained particles upon drying and sieving, is from to 8 m^2/g, advantageously from to 7 m^2/g, preferably from 3 to 6 m^2/g. The Specific Surface Area is determined by Brunauer-Emmett-Teller (BET) nitrogen adsorption method according to a procedure known in the art.
Alternatively, the physical stability may be measured using the specific surface area of the drug particles analysed by adsorption analysis, BET surface measurement, according to a method known to the skilled person.
Specific surface area (SSA) of the dried and sieved particles, analyzed by BET nitrogen adsorption method, was determined to be of about 4.3 m^2/g.

[6] = Example 1 powder (2H,3H-decafluoropentane), storage 22±2° C., 60% relative humidity, time 0
[7] = Example 1 powder, storage 22±2° C., 60% relative humidity, 1 W
[8] = Example 1 powder, storage 22±2° C., 60% relative humidity, 2 W
[9] = Example 1 powder, storage 22±2° C., 60% relative humidity, 3 M
[10] = Example 1 powder, storage 22±2° C., 60% relative humidity, 4 W
[11] = Example 4 powder (dichloromethane), time 0
[12] = Example 5 powder (perfluoroheptane isomer mixture), 45 minutes processing, time 0

SMILES: C[N+]1(C)CCC(OC(=O)C(O)(c2ccccc2)C2CCCC2)C1 (racemic) [rac-glycopyrronium bromide, (3S,2′R), (3R,2′S)-3-[(cyclopentylhydroxyphenylacetyl)oxy]-1,1-dimethylpyrrolidinium bromide]
- change in degree of crystallinity or polymorphic form (XPRD and DSC) ([1]; Example 1 final product compared to the initial coarse drug): no change in degree of crystallinity or polymorphic form
- XRD ([1]; 4 W): Crystalline
- XRD ([1]; time 0): Crystalline
- PSD d(v0.1) [6]: 0.71
- PSD d(v0.5) [6]: 1.85
- PSD d(v0.9) [6]: 4.77
- d(v0.5) (Example 1 powder after micronization and drying (2H,3H-decafluoropentane)): 1.85 μm
- change of particle size upon storage (Example 1 powder, storage 22±2° C., 60% relative humidity, up to 3 months): does not significantly change
- PSD d(v0.1) [7]: 0.72
- PSD d(v0.5) [7]: 1.92
- PSD d(v0.9) [7]: 5.03
- PSD d(v0.1) [8]: 0.72
- PSD d(v0.5) [8]: 1.88
- PSD d(v0.9) [8]: 4.95
- PSD d(v0.1) [9]: 0.75
- PSD d(v0.5) [9]: 2.07
- PSD d(v0.9) [9]: 5.26
- PSD d(v0.1) [10]: 0.72
- PSD d(v0.5) [10]: 1.93
- PSD d(v0.9) [10]: 4.97
- PSD d(v0.1) [11]: 0.80
- PSD d(v0.5) [11]: 2.06
- PSD d(v0.9) [11]: 6.46
- d(v0.5) (Example 4 powder after micronization and drying (dichloromethane)): 2.06 μm
- PSD d(v0.1) [12]: 0.66
- PSD d(v0.5) [12]: 1.70
- PSD d(v0.9) [12]: 4.31
- re-dispersibility of dried product [2]: could not be re-dispersed under mechanical agitation
- average particle size by SEM [3]: below 5 μm
- change in degree of crystallinity or polymorphic form (DVS) [4]: no change in degree of crystallinity or polymorphic form
- Specific surface area (SSA) ([5]; dried and sieved particles): about 4.3 m^2/g
- BET SSA ([5]; 1 W): 4.198 m^2/g
- BET SSA ([5]; 2 W): 4.210 m^2/g
- BET SSA ([5]; 3 M): 4.00 m^2/g
- BET SSA ([5]; 4 W): 4.086 m^2/g
- BET SSA ([5]; time 0): 4.326 m^2/g
